Measured values reported in patent US20170283458A1, “COLLAGEN-BINDING SYNTHETIC PEPTIDOGLYCANS FOR WOUND HEALING” (Symic Biomedical, Inc., priority 2009, published 2017).
Ends that are not written are not given here.

What was measured:
HCA SMCs = assay: Measurement of elastin (Fastin assay) in cell-seeded collagen gels; assay type: cell-based, human; settings: gels cultured for 10 days
Experimental: Collagen gels seeded with HCA SMCs were prepared as described in EXAMPLE 30. Differentiation medium was changed every three days and gels were cultured for 10 days. Collagen gels containing no cells were used as a control. Gels were rinsed in 1×PBS overnight to remove serum protein, and gels were tested for elastin content using the Fastin elastin assay per manufacturers protocol (Biocolor, County […].). Briefly, gels were solubilized in 0.25 M oxalic acid by incubating at 100° C. for 1 hr. Elastin was precipitated and samples were then centrifuged at 11,000×g for 10 min. The solubilized collagen supernatant was removed and the elastin pellet was stained by Fastin Dye Reagent for 90 min at room temperature. Samples were centrifuged at 11,000×g for 10 min and unbound dye in the supernatant was removed. Dye from the elastin pellets was released by the Fastin Dye Dissociation Reagent, and 100 μL samples were transferred to a 96-well plate (Costar). Absorbance was measured at 513 nm, and elastin content was calculated from an α-elastin standard curve.

Long-Evans rats [1] = assay: Rat incisional model, visual scar scoring (visible scar length); assay type: in vivo
Experimental: (§1) Using sterile techniques, longitudinal wounds were incised on shaved dorsal skin of the rats. A 4 cm incision was cut through the panniculus down to the skeletal musculature, and a 250 μL single dose of either 10 mg/mL hyaluronic acid (HA) or HA+DS-SILY was applied to the open wound by a syringe. DS-SILY was tested at 0.5, 1, and 2.5 mg/mL mixed with HA. The incision was then sutured closed and animals were returned to individual cages and monitored for complications. Negative control rats received no treatment and were treated identically. A pilot study was performed (n=3) at time points 3, 7, 10, 14, and 21 days, followed by a higher powered study (n=9) for 21 and 28 day time points.
Photographs of scars were taken at the time of necropsy using a digital camera with predetermined manual settings mounted on a camera stand to standardize focal distance
(FIG. 36). A scale bar was included in each image and was used to determine the visible scar length. At the 21 and 28-day times points, five blinded observers traced the visible scar length using ImageJ software (NIH) to give a quantitative measure of visual scar healing.

collagen gels = molecular target: T1, collagen gels (Bos taurus, UniProt P02453+P02465); assay: Cryo-SEM measurement of fibril density; assay type: biochemical; settings: 10:1 molar ratio, cryo-SEM 10,000×
T1 construct: purchased Inamed, Freemont, Calif; Nutragen
Experimental: Collagen gels were formed in the presence of each additive at a 10:1 molar ratio, as described in EXAMPLE 16, directly on the SEM stage, processed, and imaged as described. Images at 10,000× were analyzed for fibril density calculations. Images were converted to 8-bit black and white, and threshold values for each image were determined using ImageJ software (NIH). The threshold was defined as the value where all visible fibrils are white, and all void space is black. The ratio of white to black area was calculated using MatLab software. All measurements were taken in triplicate and thresholds were determined by an observer blinded to the treatment.

Long-Evans rats [2] = assay: Rat incisional model, trichrome histological scoring of scar tissue (Beausang); assay type: in vivo; settings: 21-days post-injury; 0.125 mg and 0.625 mg; vs untreated wounds
Experimental: as §1, with “points. […]” for “points.”
(§2) H&E stained samples were examined for inflammation by a board certified pathologies blinded to the treatments following a scale adapted from Simhon et al. Trichrome stained samples were evaluated for scar tissue formation by an observer blinded to the treatments using a method established by Beausang et al. in which collagen orientation, density, and maturation are observed and compared to collagen of healthy tissue. A total of 12 tissue samples were analyzed for each study at each time point. Statistics were analyzed by ANOVA using Design Expert software (StatEase, Minneapolis, Minn.). […]

Long-Evans rats [3] = assay: Rat incisional model, H&E histological scoring for inflammation; assay type: in vivo; settings: low and high doses, all time points
Experimental: as §1, with “points. […]” for “points.”
as §2

T1 sequence (P02453 162-1217 limits assumed): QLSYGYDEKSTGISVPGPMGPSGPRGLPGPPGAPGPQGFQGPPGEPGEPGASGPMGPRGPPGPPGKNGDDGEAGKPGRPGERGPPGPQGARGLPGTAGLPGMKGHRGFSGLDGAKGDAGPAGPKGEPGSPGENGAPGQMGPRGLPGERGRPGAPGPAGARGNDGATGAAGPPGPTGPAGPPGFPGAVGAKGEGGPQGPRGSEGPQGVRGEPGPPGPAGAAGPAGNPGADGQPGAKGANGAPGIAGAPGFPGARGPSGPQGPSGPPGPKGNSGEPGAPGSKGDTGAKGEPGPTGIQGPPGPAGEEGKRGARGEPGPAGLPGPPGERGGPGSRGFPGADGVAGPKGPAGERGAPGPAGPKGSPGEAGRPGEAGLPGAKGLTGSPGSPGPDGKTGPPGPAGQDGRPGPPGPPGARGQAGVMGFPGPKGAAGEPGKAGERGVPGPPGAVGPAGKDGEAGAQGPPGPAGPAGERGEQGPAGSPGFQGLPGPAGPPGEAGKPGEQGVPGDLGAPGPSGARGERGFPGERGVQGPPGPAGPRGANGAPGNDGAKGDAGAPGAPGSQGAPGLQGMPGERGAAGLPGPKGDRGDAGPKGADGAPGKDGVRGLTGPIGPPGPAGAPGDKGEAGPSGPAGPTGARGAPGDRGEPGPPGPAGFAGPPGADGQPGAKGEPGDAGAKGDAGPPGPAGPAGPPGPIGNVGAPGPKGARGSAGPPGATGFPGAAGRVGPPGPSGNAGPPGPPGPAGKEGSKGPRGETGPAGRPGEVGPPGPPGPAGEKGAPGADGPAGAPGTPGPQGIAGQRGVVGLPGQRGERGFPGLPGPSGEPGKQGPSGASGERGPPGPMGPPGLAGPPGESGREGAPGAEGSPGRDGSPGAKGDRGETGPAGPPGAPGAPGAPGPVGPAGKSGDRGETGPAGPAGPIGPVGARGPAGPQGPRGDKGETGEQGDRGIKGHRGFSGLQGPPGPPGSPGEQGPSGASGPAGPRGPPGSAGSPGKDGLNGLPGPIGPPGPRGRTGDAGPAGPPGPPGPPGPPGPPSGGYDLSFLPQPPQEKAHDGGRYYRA
T1 sequence (P02465 80-1117 limits assumed): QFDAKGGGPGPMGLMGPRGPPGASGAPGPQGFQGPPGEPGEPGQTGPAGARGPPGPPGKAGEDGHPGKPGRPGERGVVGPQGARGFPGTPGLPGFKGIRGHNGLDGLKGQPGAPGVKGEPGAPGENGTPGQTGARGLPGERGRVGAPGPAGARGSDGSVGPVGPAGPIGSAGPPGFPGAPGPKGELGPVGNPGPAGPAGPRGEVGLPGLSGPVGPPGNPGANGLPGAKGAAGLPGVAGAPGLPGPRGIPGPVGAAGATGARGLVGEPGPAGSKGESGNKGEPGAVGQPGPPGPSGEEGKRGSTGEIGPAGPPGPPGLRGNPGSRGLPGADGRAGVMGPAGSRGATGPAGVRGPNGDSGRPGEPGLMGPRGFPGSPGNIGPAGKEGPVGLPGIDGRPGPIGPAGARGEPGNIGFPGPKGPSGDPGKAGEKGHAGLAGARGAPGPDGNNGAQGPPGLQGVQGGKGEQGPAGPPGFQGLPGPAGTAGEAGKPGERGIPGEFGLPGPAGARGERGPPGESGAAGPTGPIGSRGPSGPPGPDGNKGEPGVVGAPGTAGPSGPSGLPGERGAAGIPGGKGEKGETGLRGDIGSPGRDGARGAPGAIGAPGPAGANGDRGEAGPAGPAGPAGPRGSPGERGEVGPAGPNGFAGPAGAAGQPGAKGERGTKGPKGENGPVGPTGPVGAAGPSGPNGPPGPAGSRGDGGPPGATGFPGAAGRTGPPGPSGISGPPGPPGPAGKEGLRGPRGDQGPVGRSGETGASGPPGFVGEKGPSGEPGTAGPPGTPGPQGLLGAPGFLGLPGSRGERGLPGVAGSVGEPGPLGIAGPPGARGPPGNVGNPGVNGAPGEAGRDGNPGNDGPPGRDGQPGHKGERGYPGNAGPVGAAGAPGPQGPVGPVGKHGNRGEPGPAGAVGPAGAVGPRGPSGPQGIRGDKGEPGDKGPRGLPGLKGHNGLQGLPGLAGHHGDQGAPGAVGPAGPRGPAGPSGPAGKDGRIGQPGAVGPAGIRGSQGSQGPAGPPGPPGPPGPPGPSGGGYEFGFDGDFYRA

In the case of “DS-SILY: collagen-binding peptidoglycan in which a single SILY peptide was conjugated to dermatan sulfate via PDPH (RRANAALKAGELYKSILYGC; also: single peptide conjugated to dermatan sulfate via PDPH, site not given here)”, the elastin production (HCA SMCs) is reported as “significantly increased elastin production over all samples”, the visible scar length (Long-Evans rats [1]; 21 days, both doses (0.125 mg, 0.25 mg)) is reported as “decreased visible scar length measured by 5 blinded observers was significant” and the visible scar length (Long-Evans rats [1]; 28 days, high dose (0.25 mg)) is reported as “not significant at 28 days compared to HA control”. The “fibril density (ratio of fibril containing area to void space)” value (collagen gels) was “significantly greater fibril density”, the “histological score for collagen maturity and organization (scar tissue)” value (Long-Evans rats [2]) was “significantly lower scores” and the “inflammatory response (histological scoring)” value (Long-Evans rats [3]) was “does not cause an adverse immune response”. For the same substance, the “inflammatory response (histological scoring)” value (Long-Evans rats [3]; listed as peptidoglycan) was “did not have any adverse inflammatory effect”.
